{"source": "paper PMC8830069", "about": "“Metallo-β-Lactamase Inhibitor Phosphonamidate Monoesters” (ACS Omega, 2022)", "key": {"GIM-1": {"molecular_target": "GIM-1 (Pseudomonas aeruginosa, UniProt Q704V1)", "sequence (Q704V1 entry or part of it)": "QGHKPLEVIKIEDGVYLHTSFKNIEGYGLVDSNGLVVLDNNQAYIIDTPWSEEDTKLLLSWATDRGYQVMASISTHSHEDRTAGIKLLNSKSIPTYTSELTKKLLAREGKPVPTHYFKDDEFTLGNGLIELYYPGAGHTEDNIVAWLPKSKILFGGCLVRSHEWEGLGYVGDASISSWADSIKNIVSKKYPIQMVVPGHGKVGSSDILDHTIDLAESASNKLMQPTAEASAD", "assay": "MBL inhibition assay, purified GIM-1, nitrocefin hydrolysis at 482 nm", "assay_type": "biochemical", "conditions": "nitrocefin reporter substrate, 1 nM enzyme, 2.5% DMSO, highest inhibitor concentration 800 μM; N.I. and P. not defined", "method": "(§1) The inhibitory activities of 1a–h and 2 against the purified NDM-1, GIM-1, and VIM-2 enzymes were evaluated (IC50 data in Table 1). The inhibitory activity was measured by monitoring nitrocefin hydrolysis for VIM-2 and GIM-1 and that of imipenem for NDM-1[19] at λ 482 and 300 nm, respectively. […] This may indicate that unlike the sulfur of captopril, that of 1a and 2 might not coordinate the zinc ions in the active site. Alternatively, this may be a result of disulfide formation under the conditions of the enzyme assay. The hydrophobic 1f–h precipitated during the enzyme assay and their inhibitory activities could therefore not be reliably measured. This is not unusual as the binding cleft of MBL inhibitors is hydrophobic, and accordingly, their inhibitors typically have poor aqueous solubility.[20] The inhibitors may be solubilized by careful dilution of dimethylsulfoxide (DMSO) stock solutions; however, this was not successful for compounds 1f–h.\n(§2) The inhibitory activity (IC50) of 1a–h was studied against the MBL enzymes NDM-1, GIM-1, and VIM-2. The buffer used for the studies contained 50 mM HEPES at pH 7.2, 10 μM ZnSO4, 2.5% DMSO, and 0.4 mg/mL bovine serum albumin, used as a prevention of protein unfolding and loss of activity. The enzyme concentration of NDM-1 was 10 nM, of GIM-1 1 nM, and of VIM-2 100 pM. The inhibitors were dissolved in 100% DMSO, and a twofold dilution series was made with a final 2.5% DMSO in the assay. The highest inhibitor concentration was 800 μM. The reporter substrate for VIM-2 and GIM-1 was nitrocefin, while for NDM-1 imipenem, and their absorbance (concentration) was followed at the wavelengths 482 and 300 nm, respectively. L-Captopril and EDTA-Na were used as positive and water and DMSO as negative controls. Measurements were read for 30 min at 298 K."}, "in vitro": {"assay": "in vitro", "assay_type": "cell-based", "conditions": "human; cell viability after 24 hours incubation, at least two independent experiments; read-out: Cytotoxicity IC50 in HeLa cells", "method": "The cytotoxicity of phosphonamidate monoesters was evaluated against HeLa cells (ATCC-CCL-2), which were maintained in Dulbecco’s modified Eagle medium (Thermo Fisher Scientific) supplemented with 10% (v/v) fetal bovine serum (Thermo Fisher Scientific), penicillin (100 units/mL), and streptomycin (100 μg/mL, both from Sigma) at 37 °C, 5% CO2. Cells were seeded in 96-well plates (Corning, Merck) at 20 × 10^3 cells/well and incubated for 24 h (37 °C, 5% CO2). Stock solutions of the compounds were prepared at 150 mM in DMSO (Sigma), and the cells were exposed to a serial dilution and incubated for 24 h. Subsequently, the cells were washed twice with culture medium, and the PrestoBlue reagent (Thermo Fischer Scientific) was directly added to the cells for cell viability determination (1:10 dilution in culture medium). Following recommended incubation times (manufacturer’s instructions), fluorescence was measured using a Spark plate reader (Tecan, Austria) at Ex/Em 560/590 nm and corrected for background fluorescence by including control wells containing only cell culture media (no cells). Data analysis was performed using GraphPad Prism 9.0.0 (GraphPad Software, USA). At least two independent experiments were performed.\nFigure S1. Cytotoxicity dose-response curves of phosphonamidate monoesters as determined in HeLa cells. The cells were treated with the compounds at the indicated concentrations, and cell viability was measured after 24 hours incubation. The following IC50 values wer e determined to be (A) 69. 2 µM (SD = 1.0) for KAT -A-109-H2, (B) 201.4 µM (SD = 4.4) for KAT -A-102-H1 and (C) 90.7 µM (SD = 1.0) for KAT -A-118-H1. All remaining compounds (D - H) had IC50 values above 500 µM. Data is shown as mean ± SD of at least two independent experiments.\n*A 1h, B 1e, C 1f, D 1a, E 1b, F 1d, G 1c. […]"}, "VIM-2": {"molecular_target": "VIM-2 (Escherichia coli, UniProt Q5U7L7)", "assay": "MBL inhibition assay, purified VIM-2, nitrocefin hydrolysis at 482 nm", "assay_type": "biochemical", "conditions": "nitrocefin reporter substrate, 100 pM enzyme, 2.5% DMSO, highest inhibitor concentration 800 μM; N.I. and P. not defined", "method": "as §1, §2"}, "[1]": {"assay": "Solubility / aggregation in NMR buffer", "assay_type": "physicochemical", "conditions": "20 mM K3PO4 aqueous buffer solution at pH 7; aggregation was observed", "method": "As binding-induced protein NMR chemical shift changes reveal the alteration of the local environment in the vicinity of the monitored nuclei, these are commonly acquired for identification of binding clefts. We monitored the weighted chemical shift changes, Δδ1H,15N, of uniformly ^15N-enriched backbone amide functionalities upon successive additions of the 0–2.370 mM ligand using ^1H,^15N HSQC experiments (Figure 5). Following literature examples,[31] chemical shift perturbations (CSPs) were considered to be significant (SSPs) in case the observed Δδ1H,15N was greater than the population mean plus the standard deviation (μ + 1σ). Such chemical shift changes may directly originate from the interaction or might be indirect and thus be the result of binding-induced conformational changes. Based on its activity against NDM-1 (Table 1) and solubility, 1d was selected for detailed analysis (Figure S2, Supporting Information). […] In order to exclude aggregation of 1d, we also performed additional ^1H,^15N HSQC titration experiments using 5% DMSO or 5% ethanol (EtOH). Some minor chemical shift variations were observed upon the addition of the co-solvents, as expected,[34] whereas neither protein precipitation nor alteration of the overall structure of NDM-1 was detected (Figures S3 and S4, Supporting Information). The chemical shift changes of 234 backbone amides were monitored. […]"}, "NDM-1 [2]": {"molecular_target": "T1, NDM-1 (Klebsiella pneumoniae, UniProt C7C422)", "T1 sequence (C7C422 29-270 limits assumed)": "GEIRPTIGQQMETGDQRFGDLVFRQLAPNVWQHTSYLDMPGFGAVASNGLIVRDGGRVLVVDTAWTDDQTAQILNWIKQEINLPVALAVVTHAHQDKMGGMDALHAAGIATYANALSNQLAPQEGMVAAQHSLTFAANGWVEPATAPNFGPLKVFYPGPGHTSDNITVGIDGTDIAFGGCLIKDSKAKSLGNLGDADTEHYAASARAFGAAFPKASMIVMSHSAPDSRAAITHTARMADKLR", "assay": "MBL inhibition assay, purified NDM-1, imipenem hydrolysis at 300 nm", "assay_type": "biochemical", "method": "as §1, §2"}, "NDM-1 [3]": {"molecular_target": "T1, NDM-1", "assay": "1H,15N HSQC chemical shift titration and 15N-filtered HSQC-NOESY with 15N-labeled NDM-1", "assay_type": "binding", "method": "As binding-induced protein NMR chemical shift changes reveal the alteration of the local environment in the vicinity of the monitored nuclei, these are commonly acquired for identification of binding clefts. We monitored the weighted chemical shift changes, Δδ1H,15N, of uniformly ^15N-enriched backbone amide functionalities upon successive additions of the 0–2.370 mM ligand using ^1H,^15N HSQC experiments (Figure 5). Following literature examples,[31] chemical shift perturbations (CSPs) were considered to be significant (SSPs) in case the observed Δδ1H,15N was greater than the population mean plus the standard deviation (μ + 1σ). […] Some minor chemical shift variations were observed upon the addition of the co-solvents, as expected,[34] whereas neither protein precipitation nor alteration of the overall structure of NDM-1 was detected (Figures S3 and S4, Supporting Information). The chemical shift changes of 234 backbone amides were monitored. […]\nAdditional information about the binding event was obtained from 3D-^15N-filtered HSQC-NOESY (Figure S6, Supporting Information). […] Thus, in a filtered NOE experiment, only intermolecular cross-peaks are detected. […]\nFor the titrations, two ^15N-labeled NDM-1 (0.25 mM) batches were prepared. […] All experiments were recorded on a Bruker 600 MHz spectrometer at 310 K equipped with a 5 mm TCI cryogenic probe. […]"}}}
{"smiles": "COP(=O)(CCSC(C)=O)N(Cc1ccccn1)Cc1ccccn1", "note": "(racemic) [1d, (R/S)-(2-((Bis(pyridin-2-ylmethyl)amino) (methoxy)phosphoryl)ethyl) Ethanethioate]", "values": [{"measurement": "IC50 against purified GIM-1", "setting": "GIM-1", "value": "N.I."}, {"measurement": "IC50", "setting": "in vitro", "value": "> 500", "unit": "µM"}, {"measurement": "IC50 against purified VIM-2", "setting": "VIM-2", "value": "N.I."}, {"measurement": "Solubility", "setting": "[1]", "value": "limited solubility"}, {"measurement": "IC50", "setting": "NDM-1 [2]", "value": 430, "unit": "µM"}, {"measurement": "Enzymatic modification of the structure by NDM-1 during the NMR studies", "setting": "NDM-1 [3]", "value": "no sign for enzymatic modification"}, {"measurement": "Binding to NDM-1 by chemical shift perturbation", "setting": "NDM-1 [3]; 0.25 mM 15N-labeled NDM-1, up to 1:10 protein/ligand, 310 K", "value": "specific binding"}]}
